The values that follow come from US20260137773A1 (priority 2022, published 2026).

The conditions of series [1]: healthy volunteers; cited from earlier work.
The subject of series [2] is 4T1 mouse mammary gland carcinoma. The format is in vivo. The note with it: data not shown.
Series [3] deals with complement activation. The note with it: higher than Factor H; cited from earlier work.

Turning to `CC[C@H](C(=O)N1CCCC[C@H]1C(=O)O[C@H](CCc1ccc(OC)c(OC)c1)c1cccc(OCC(=O)NCCNC(=O)COc2cccc([C@@H](CCc3ccc(OC)c(OC)c3)OC(=O)[C@@H]3CCCCN3C(=O)[C@@H](CC)c3cc(OC)c(OC)c(OC)c3)c2)c1)c1cc(OC)c(OC)c(OC)c1` [AP1903], in series [1], the safety entry is recorded as “proven safe”. Versikine: in series [2], the “tumor size, Versikine assessed alone” value is reported as “did not significantly reduced tumor size”.

B1: miniFH (protein)
chain: EDCNELPPRRNTEILTGSWSDQTYPEGTQAIYKCRPGYRSLGNVIMVCRKGEWVALNPLRKCQKRPCGHPGDTPFGTFTLTGGNVFEYGVKAVYTCNEGYQLLGEINYRECDTDGWTNDIPICEVVKCLPVTAPENGKIVSSAMEPDREYHFGQAVRFVCNSGYKIEGDEEMHCSDDGFWSKEKPKCVEISCKSPDVINGSPISQKIIYKENERFQYKCNMGYEYSERGDAVCTESGWRPLPSCEEKSCDNPYIPNGDYSPLRIKHRTGDEITYQCRNGFYPATRGNTAKCTSTGWIPAPRCTSGSGGGGVDTTSCVNPPTVQNAYIVSRQMSKYPSGERVRYQCRSPYEMFGDEEVMCLNGNWTEPPQCKDSTGKCGPPPPIDNGDITSFPLSVYAPASSVEYQCQNLYQLEGNKRITCRNGQWSEPPKCLHPCVISREIMENYNIALRWTAKQKLYSRTGESVEFVCKRGYRLSSRSHTLRTTCWDGKLEYPTCAKR
modifications: REGION 1..499: note = miniFH POLYPEPTIDE
Consider B1, for which the “ex vivo potency to inhibit complement activation compared with FH” value in series [3] is given as about 10 fold.
